A short description of this assay: Inhibition of CRM1 in human HCT-15 cells assessed as reduction in cell viability incubated for 24 hrs.

One may read the IC50 as the concentration needed to halve the response being measured. As for `[O-][S@@+](/C=C/CCN=C=S)c1cc(C(F)(F)F)cc(C(F)(F)F)c1`, the IC50 is 0.151 µM.

The values are drawn from BindingDB's records for doi:10.1021/acs.jmedchem.9b01663 (Dalian University of Technology, 2020).
